Source: patent US4292317A, “1,4-Dihydro-quinoline-3-carboxylic acid derivatives, process for their preparation and compositions containing them” (Laboratorie Roger Bellon, priority 1977, dated 1981)
≈ marks a conversion by molar mass, not a printed value.

Legend:
[1] = tested on: Strept. pyogenes A. 65; test: Systemic infection in mice; format: in vivo; conditions: Streptococcus pyogenes, A.65, po, 168 h
Experimental: (§1) The activity of the compounds according to the invention against systemic infections in mice, caused by Staphylococcus 50,774, Streptococcus pyogenes A 65, Pseudomonas aeruginosa No. 12 and Escherichia coli P 5101, has been studied.
(§2) The infections were set up by intraperitoneal injection of a suspension of the bacterial culture corresponding to the germ studied. The products were administered orally at the time of injection, and 6 hours later. […] Aureus and for 7 days for the other germs.
(§3) Oxolinic acid was used as the reference substance.

[2] = tested on: Escherichia coli P 5101; test: Systemic infection in mice; format: in vivo; conditions: P5101, po, 168 h
Experimental: as §1, §2, §3

[3] = tested on: Staph. aureus 50,774; test: Systemic infection in mice; format: in vivo; conditions: Staphylococcus aureus, po, 336 h
Experimental: as §1, §2, §3

[4] = tested on: Pseudomonas aeruginosa No. 12; test: Systemic infection in mice; format: in vivo; conditions: NO.12, po, 168 h
Experimental: as §1, §2, §3

[5] = tested on: Strept. pyogenes A. 65; test: M.I.C. for germ used in experimental infection; format: cell-based; conditions: Streptococcus pyogenes, A.65, 18 h
Experimental: (§4) After sterilisation at 120° C., the pH was 6.8.
(§5) The minimum inhibitory concentrations (M.I.C.) were determined by dilution of the test compounds in this mixture, the concentration ranging from 0.05 to 100 μg/cm^3 in a geometric progression with a factor of 2.
(§6) The inoculation of the dishes was carried out by means of a multiple inoculator with 10^-3 dilutions of 18 hour old broth cultures.
(§7) The dishes were placed in an oven at 37° C. and the readings were taken afer an incubation time of 18 hours. The M.I.C. was taken as the lowest concentration which inhibited a culture.

[6] = tested on: Escherichia coli P 5101; test: M.I.C. for germ used in experimental infection; format: cell-based; conditions: P5101, 18 h
Experimental: as §4, §5, §6, §7

[7] = tested on: Staph. aureus 50,774; test: M.I.C. for germ used in experimental infection; format: cell-based; conditions: Staphylococcus aureus, 18 h
Experimental: as §4, §5, §6, §7

[8] = tested on: Pseudomonas aeruginosa No. 12; test: M.I.C. for germ used in experimental infection; format: cell-based; conditions: NO.12, 18 h
Experimental: as §4, §5, §6, §7

[9] = tested on: Providentia 0223; test: M.I.C. in vitro, nutrient agar dilution; format: cell-based; conditions: 18 h
Experimental: as §4, §5, §6, §7

[10] = tested on: Sh. sonnei I.P.S.; test: M.I.C. in vitro, nutrient agar dilution; format: cell-based; conditions: Shigella sonnei, 18 h; Table III; Sh. sonnei I.P.S.; read-out: M.I.C.
Experimental: as §4, §5, §6, §7

[11] = tested on: Serratia; test: M.I.C. in vitro, nutrient agar dilution; format: cell-based; conditions: 18 h
Experimental: as §4, §5, §6, §7

[12] = tested on: Esch. coli 111 B4; test: M.I.C. in vitro, nutrient agar dilution; format: cell-based; conditions: Escherichia coli, 18 h; Table III; Esch. coli 111 B4
Experimental: as §4, §5, §6, §7

[13] = tested on: Staph. 209 P; test: M.I.C. in vitro, nutrient agar dilution; format: cell-based; conditions: 18 h
Experimental: as §4, §5, §6, §7

[14] = tested on: Arizona 6.211; test: M.I.C. in vitro, nutrient agar dilution; format: cell-based; conditions: 18 h
Experimental: as §4, §5, §6, §7

[15] = tested on: Esch. coli 54.127 O.M.S.; test: M.I.C. in vitro, nutrient agar dilution; format: cell-based; conditions: Escherichia coli, 54.127O.M.S., 18 h
Experimental: as §4, §5, §6, §7

[16] = tested on: Staph. 9.144; test: M.I.C. in vitro, nutrient agar dilution; format: cell-based; conditions: 18 h
Experimental: as §4, §5, §6, §7

[17] = tested on: Klebs. pneum. 10.031; test: M.I.C. in vitro, nutrient agar dilution; format: cell-based; conditions: 18 h
Experimental: as §4, §5, §6, §7

[18] = tested on: Pr. vulgaris 12-53; test: M.I.C. in vitro, nutrient agar dilution; format: cell-based; conditions: Proteus vulgaris, 1253, 18 h
Experimental: as §4, §5, §6, §7

[19] = tested on: Ps. aeruginosa A.22; test: M.I.C. in vitro, nutrient agar dilution; format: cell-based; conditions: Pseudomonas aeruginosa, A.22, 18 h
Experimental: as §4, §5, §6, §7

[20] = tested on: Pr. mirabilis Nig; test: M.I.C. in vitro, nutrient agar dilution; format: cell-based; conditions: Proteus mirabilis, 18 h
Experimental: as §4, §5, §6, §7

[21] = tested on: S. oranienburg 1066; test: M.I.C. in vitro, nutrient agar dilution; format: cell-based; conditions: Salmonella enterica, 1066, 18 h
Experimental: as §4, §5, §6, §7

[22] = tested on: Bord. bronchis. 4.617; test: M.I.C. in vitro, nutrient agar dilution; format: cell-based; conditions: 18 h
Experimental: as §4, §5, §6, §7

[23] = tested on: S. enteritidis Danysz; test: M.I.C. in vitro, nutrient agar dilution; format: cell-based; conditions: Salmonella enterica, ENTERITIDIS, 18 h
Experimental: as §4, §5, §6, §7

[24] = tested on: Pr. morganii A.236; test: M.I.C. in vitro, nutrient agar dilution; format: cell-based; conditions: Morganella morganii, A.236, 18 h
Experimental: as §4, §5, §6, §7

[25] = tested on: Esch. coli 95 I.S.M.; test: M.I.C. in vitro, nutrient agar dilution; format: cell-based; conditions: Escherichia coli, 95I.S.M., 18 h
Experimental: as §4, §5, §6, §7

[26] = tested on: Ps. aeruginosa 72.345; test: M.I.C. in vitro, nutrient agar dilution; format: cell-based; conditions: Pseudomonas aeruginosa, 72.345, 18 h
Experimental: as §4, §5, §6, §7

[27] = tested on: B. subtilis; test: M.I.C. in vitro, nutrient agar dilution; format: cell-based; conditions: Bacillus subtilis, 18 h
Experimental: as §4, §5, §6, §7

[28] = tested on: Strepto D.M. 19; test: M.I.C. in vitro, nutrient agar dilution; format: cell-based; conditions: 18 h
Experimental: as §4, §5, §6, §7

[29] = in vivo; conditions: mouse, mice
[30] = tested on: Salm. typhi 0901; test: microbe, parasite or virus in culture; format: cell-based; conditions: Salmonella enterica, 18 h; Table III; Salm. typhi 0901
Experimental: as §4, §5, §6, §7

Compound: CCn1cc(C(=O)O)c(=O)c2cc3c(cc21)OCO3 [Oxolinic acid, oxolinic acid, reference compound]
- ED50 [1]: > 100 mg/kg
- ED90 [1]: > 100 mg/kg
- ED50 [2]: 17 mg/kg
- ED90 [2]: 45.1 mg/kg
- ED50 [3]: 53.2 mg/kg
- ED90 [3]: 111 mg/kg
- ED50 [4]: 70.1 mg/kg
- ED90 [4]: 142 mg/kg
- MIC [5]: 100 µg/mL (≈ 383 µM)
- MIC [6]: 0.2 µg/mL (≈ 0.766 µM)
- MIC [7]: 1.56 µg/mL (≈ 5.97 µM)
- MIC [8]: 12.5 µg/mL (≈ 47.9 µM)
- MIC [9]: 25 µg/mL (≈ 95.7 µM)
- MIC [10]: 0.2 µg/mL (≈ 0.766 µM)
- MIC [11]: 0.8 µg/mL (≈ 3.06 µM)
- MIC [12]: 0.4 µg/mL (≈ 1.53 µM)
- MIC [13]: 0.8 µg/mL (≈ 3.06 µM)
- MIC [14]: 0.4 µg/mL (≈ 1.53 µM)
- MIC [15]: 0.4 µg/mL (≈ 1.53 µM)
- MIC [16]: 0.8 µg/mL (≈ 3.06 µM)
- MIC [17]: 0.1 µg/mL (≈ 0.383 µM)
- MIC [18]: 0.05 µg/mL (≈ 0.191 µM)
- MIC [19]: 12.5 µg/mL (≈ 47.9 µM)
- MIC [20]: 0.4 µg/mL (≈ 1.53 µM)
- MIC [21]: 25 µg/mL (≈ 95.7 µM)
- MIC [22]: 3.1 µg/mL (≈ 11.9 µM)
- MIC [23]: 0.8 µg/mL (≈ 3.06 µM)
- MIC [24]: 0.1 µg/mL (≈ 0.383 µM)
- MIC [25]: 0.1 µg/mL (≈ 0.383 µM)
- MIC [26]: 6.2 µg/mL (≈ 23.7 µM)
- MIC [27]: 0.1 µg/mL (≈ 0.383 µM)
- MIC [28]: 25 µg/mL (≈ 95.7 µM)
- LD50 ([29]; iv): 177 mg/kg
- LD50 ([29]; po): > 2000 mg/kg
- MIC [30]: 0.4 µg/mL (≈ 1.53 µM)
